One test deals with T1, TBK1 (Homo sapiens, UniProt Q9UHD2).
T1 sequence (Q9UHD2 1-729): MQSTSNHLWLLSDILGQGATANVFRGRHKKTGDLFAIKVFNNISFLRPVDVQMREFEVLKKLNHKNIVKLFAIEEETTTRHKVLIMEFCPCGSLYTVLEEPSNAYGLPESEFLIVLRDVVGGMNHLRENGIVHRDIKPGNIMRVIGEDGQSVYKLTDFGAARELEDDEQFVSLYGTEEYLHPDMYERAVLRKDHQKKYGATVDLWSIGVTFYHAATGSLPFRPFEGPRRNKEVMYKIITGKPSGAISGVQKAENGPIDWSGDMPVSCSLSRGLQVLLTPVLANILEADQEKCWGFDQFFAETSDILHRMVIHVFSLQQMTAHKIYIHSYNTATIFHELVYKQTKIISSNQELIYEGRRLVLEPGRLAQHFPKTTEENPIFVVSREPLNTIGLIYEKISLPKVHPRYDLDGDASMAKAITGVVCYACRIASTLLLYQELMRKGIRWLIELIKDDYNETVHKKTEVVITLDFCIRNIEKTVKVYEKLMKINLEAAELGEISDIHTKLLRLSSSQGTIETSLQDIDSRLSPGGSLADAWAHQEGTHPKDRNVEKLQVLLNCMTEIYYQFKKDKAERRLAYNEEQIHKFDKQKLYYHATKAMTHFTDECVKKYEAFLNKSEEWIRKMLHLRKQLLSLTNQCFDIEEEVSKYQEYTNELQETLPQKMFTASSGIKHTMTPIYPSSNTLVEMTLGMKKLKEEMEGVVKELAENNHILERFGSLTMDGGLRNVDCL
As to the kind of experiment: TBK Biochemical Assay. The conditions noted are these: read-out: TBK1 IC50. A digest of the protocol:
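Caliper LabChip mobility-shift readout of substrate and product after 90 min of TBK1 reaction at 25° C and stop-buffer addition. Compounds tested in 1:4 serial dilution over 10 points from 30 uM final at 1% DMSO; staurosporine 10 uM final defines full inhibition.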

Another test deals with T2, IKKε (Homo sapiens, UniProt Q14164).
T2 sequence (Q14164 1-716): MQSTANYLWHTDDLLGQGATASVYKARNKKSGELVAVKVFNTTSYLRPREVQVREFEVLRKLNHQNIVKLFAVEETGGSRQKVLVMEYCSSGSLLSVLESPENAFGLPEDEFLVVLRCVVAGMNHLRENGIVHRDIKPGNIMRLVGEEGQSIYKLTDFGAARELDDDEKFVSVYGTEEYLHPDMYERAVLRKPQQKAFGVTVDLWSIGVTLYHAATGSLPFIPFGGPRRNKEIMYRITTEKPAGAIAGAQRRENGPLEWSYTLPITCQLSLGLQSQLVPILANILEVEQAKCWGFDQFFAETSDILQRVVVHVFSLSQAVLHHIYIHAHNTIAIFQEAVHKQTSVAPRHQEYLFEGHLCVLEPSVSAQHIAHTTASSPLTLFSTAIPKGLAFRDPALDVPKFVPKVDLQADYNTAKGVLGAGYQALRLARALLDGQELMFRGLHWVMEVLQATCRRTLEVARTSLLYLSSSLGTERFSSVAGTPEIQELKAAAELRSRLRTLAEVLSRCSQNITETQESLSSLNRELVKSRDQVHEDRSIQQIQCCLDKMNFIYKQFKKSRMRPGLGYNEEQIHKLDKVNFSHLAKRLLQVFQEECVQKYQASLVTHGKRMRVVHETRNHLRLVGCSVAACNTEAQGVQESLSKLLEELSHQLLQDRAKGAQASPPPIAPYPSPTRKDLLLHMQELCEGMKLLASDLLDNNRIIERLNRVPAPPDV
As to the kind of experiment: IKKe Biochemical Assay. The conditions noted are these: read-out: IKKε IC50. The essentials:
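Activity was measured as mobility-shift separation of phosphorylated from unphosphorylated substrate on a LabChip EZ Reader. Compound was titrated from 30 uM final in 10 points, 1:4 steps, with 1% DMSO, and enzyme plus substrate reacted 90 min at 25° C before stop buffer. Control wells held 10 uM staurosporine.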

The test system of test [1] is phosphorylation of the IRF-3 protein in MDA-MB-468 cells. Nature of the test: pIRF3 immunocytochemistry cell based assay. The essentials: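 After 2 h stimulation with Poly(I:C) (10 ug/ml), following 1 h compound pre-treatment (10-point, 3-fold dilution, top 10 uM), MDA-MB-468 cells were fixed and stained with anti-pIRF3 antibody. pIRF3 fluorescence was normalized to PI staining or cell count on an Acumen cytometer. IC50 curves were derived from this.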

Setting [2] is: Homo sapiens, MDA-MB-468 cells, Poly(I:C) stimulation, read-out: pIRF3 IC50.

Read-outs that look alike come from different tables or passages of the source.

For the molecule `COc1cc(C(=O)NC2CN3CCC2CC3)cnc1-c1cc2nccc(-c3ccc(N4CC[C@@H](F)C4)c(C#N)c3)c2o1` (stereo partly drawn) [Compound 442, N—(R)-1-Aza-bicyclo[2.20.2]oct-3-yl-6-{7-[3-cyano-4-((R)-3-fluoro-pyrrolidin-1-yl)-phenyl]-furo[3,2-b]pyridin-2-yl}-5-methoxy-nicotinamide], the IC50 (commonly the point on the concentration scale where inhibition reaches its midpoint) at TBK1 is < 0.1 µM; at IKKε, < 0.1 µM; in test [1] (MDA-MB-468 cells, Poly(I:C) stimulation, read-out: pIRF3 IC50) it was 0.1 to 1 µM.
For the molecule `COc1cc(C(=O)NC2CN3CCC2CC3)ncc1-c1cc2nccc(-c3ccc(N4CCC(F)C4)c(C#N)c3)c2o1` (stereo not drawn) [Compound 443, N-[1-azabicyclo[2.2.2]octan-3-yl]-5-[7-[3-cyano-4-(3-fluoropyrrolidin-1-yl)phenyl]furo[3,2-b]pyridin-2-yl]-4-methoxypyridine-2-carboxamide], the results for the IC50 (at TBK1; on IKKε; in test [1] (setting [2])) were < 0.1 µM, < 0.1 µM and 0.1 to 1 µM, respectively.
On to `COc1cc(C(=O)N[C@@H]2CN3CCC2CC3)ncc1-c1cc2nccc(-c3ccc(N4CC[C@H](F)C4)c(C#N)c3)c2o1` [Compound 444, 5-{7-[3-Cyano-4-((S)-3-fluoro-pyrrolidin-1-yl)-phenyl]-furo[3,2-b]pyridin-2-yl}-4-methoxy-pyridine-2-carboxylic acid (1-aza-bicyclo[2.20.2]oct-3-yl)-amide], for which the IC50 (at TBK1; on IKKε; in test [1] (setting [2])) was < 0.1 µM each time.
As to `COc1cc(C(=O)N[C@@H]2CN3CCC2CC3)ncc1-c1cc2nccc(-c3ccc(N4CC[C@@H](F)C4)c(C#N)c3)c2o1` [Compound 445, 5-{7-[3-Cyano-4-((R)-3-fluoro-pyrrolidin-1-yl)-phenyl]-furo[3,2-b]pyridin-2-yl}-4-methoxy-pyridine-2-carboxylic acid (1-aza-bicyclo[2.20.2]oct-3-yl)-amide], the 50% inhibitory concentration (IC50) (on TBK1; on IKKε; in test [1] (setting [2])) was < 0.1 µM in each case.
On to `COc1cc(C(=O)N2CC[C@H](N(C)C)C2)cnc1-c1cc2nccc(-c3ccc(N4CC[C@H](F)C4)c(C#N)c3)c2o1` [Compound 447, 5-{2-[5-((S)-3-Dimethylamino-pyrrolidine-1-carbonyl)-3-methoxy-pyridin-2-yl]-furo[3,2-b]pyridin-7-yl}-2-((S)-3-fluoro-pyrrolidin-1-yl)-benzonitrile], for which the IC50 (at TBK1; at IKKε; in test [1] (setting [2])) was < 0.1 µM in each case.
`COc1cc(C(=O)N2CC[C@H](N(C)C)C2)cnc1-c1cc2nccc(-c3ccc(N4CC[C@@H](F)C4)c(C#N)c3)c2o1` [Compound 448, 5-{2-[5-((S)-3-Dimethylamino-pyrrolidine-1-carbonyl)-3-methoxy-pyridin-2-yl]-furo[3,2-b]pyridin-7-yl}-2-((R)-3-fluoro-pyrrolidin-1-yl)-benzonitrile]: the IC50 (at TBK1; on IKKε; in test [1] (setting [2])) was < 0.1 µM each time.
As for `COc1cc(C(=O)N2CC[C@H](N(C)C)C2)ncc1-c1cc2nccc(-c3ccc(N4CC[C@H](F)C4)c(C#N)c3)c2o1` [Compound 449, 5-[2-(6-[[(3S)-3-(dimethylamino)pyrrolidin-1-yl]carbonyl]-4-methoxypyridin-3-yl)furo[3,2-b]pyridin-7-yl]-2-[(3S)-3-fluoropyrrolidin-1-yl]benzonitrile], the IC50 (at TBK1; on IKKε; in test [1] (setting [2])) was < 0.1 µM throughout.
For `COc1cc(C(=O)N2CC[C@@H](N(C)C)C2)ncc1-c1cc2nccc(-c3ccc(N4CC[C@H](F)C4)c(C#N)c3)c2o1` [Compound 450, 5-[2-(6-[[(3R)-3-(dimethylamino)pyrrolidin-1-yl]carbonyl]-4-methoxypyridin-3-yl)furo[3,2-b]pyridin-7-yl]-2-[(3S)-3-fluoropyrrolidin-1-yl]benzonitrile], the results for the IC50 (on TBK1; on IKKε; in test [1] (setting [2])) were < 0.1 µM, < 0.1 µM and 0.1 to 1 µM, respectively.
`COc1cc(C(=O)NC2C3COCC32)ncc1-c1cc2nccc(-c3ccc(N4CC[C@H](F)C4)c(C#N)c3)c2o1` (stereo partly drawn) [Compound 451, 5-(7-[3-cyano-4-[(3S)-3-fluoropyrrolidin-1-yl]phenyl]furo[3,2-b]pyridin-2-yl)-4-methoxy-N-[3-oxabicyclo[3.1.0]hexan-6-yl]pyridine-2-carboxamide]: the IC50 at TBK1 is < 0.1 µM; at IKKε, < 0.1 µM; in test [1] (setting [2]) it was 0.1 to 1 µM.
For `COc1cc(C(=O)N2CC3CN(C)CC3C2)cnc1-c1cc2nccc(-c3ccc(N4CC[C@@H](F)C4)c(C#N)c3)c2o1` (stereo partly drawn) [Compound 452, 2-[(3R)-3-fluoropyrrolidin-1-yl]-5-[2-[3-methoxy-5-([5-methyl-octahydropyrrolo[3,4-c]pyrrol-2-yl]carbonyl)pyridin-2-yl]furo[3,2-b]pyridin-7-yl]benzonitrile], the IC50 on TBK1 was < 0.1 µM; on IKKε, < 0.1 µM; in test [1] (Homo sapiens, MDA-MB-468, read-out: pIRF3 IC50) it was 0.1 to 1 µM.
`COc1cc(C(=O)N2CC[C@@H](N(C)C)C2)cnc1-c1cc2nccc(-c3ccc(N4CCC(F)C4)c(C#N)c3)c2o1` (stereo partly drawn) [Compound 454, 5-[2-(5-[[(3R)-3-(dimethylamino)pyrrolidin-1-yl]carbonyl]-3-methoxypyridin-2-yl)furo[3,2-b]pyridin-7-yl]-2-(3-fluoropyrrolidin-1-yl)benzonitrile]: the IC50 on TBK1 is < 0.1 µM; at IKKε, < 0.1 µM; in test [1] (setting [2]), 0.1 to 1 µM.
`COc1cc(C(=O)N2CC[C@@H](N(C)C)C2)cnc1-c1cc2nccc(-c3ccc(N4CC[C@H](F)C4)c(C#N)c3)c2o1` [Compound 455, 5-[2-(5-[[(3R)-3-(dimethylamino)pyrrolidin-1-yl]carbonyl]-3-methoxypyridin-2-yl) (S)-furo[3,2-b]pyridin-7-yl]-2-(3-fluoropyrrolidin-1-yl)benzonitrile]: the IC50 (on TBK1; on IKKε; in test [1] (setting [2])) was < 0.1 µM each time.
As to `COc1cc(C(=O)N2CC[C@@H](N(C)C)C2)cnc1-c1cc2nccc(-c3ccc(N4CC[C@@H](F)C4)c(C#N)c3)c2o1` [Compound 456, 5-[2-(5-[[(3R)-3-(dimethylamino)pyrrolidin-1-yl]carbonyl]-3-methoxypyridin-2-yl) (R)-furo[3,2-b]pyridin-7-yl]-2-(3-fluoropyrrolidin-1-yl)benzonitrile], the IC50 (at TBK1; on IKKε; in test [1] (setting [2])) was < 0.1 µM each time.
With `COc1cc(C(=O)N2CC[C@@H](N(C)C)C2)ncc1-c1cc2nccc(-c3ccc(N4CCC(F)C4)c(C#N)c3)c2o1` (stereo partly drawn) [Compound 457, 5-[2-(6-[[(3R)-3-(dimethylamino)pyrrolidin-1-yl]carbonyl]-4-methoxypyridin-3-yl)furo[3,2-b]pyridin-7-yl]-2-(3-fluoropyrrolidin-1-yl)benzonitrile], the IC50 (on TBK1; at IKKε; in test [1] (setting [2])) was < 0.1 µM each time.

For the origin of these results see patent US10428080B2, “TBK/IKK inhibitor compounds and uses thereof” (Merck Patent GmbH, priority 2015, dated 2019).
